According to PMC9406419, “OATD-02 Validates the Benefits of Pharmacological Inhibition of Arginase 1 and 2 in Cancer” (Cancers, 2022):

Assays:
recombinant human ARG2 = target: T1, recombinant human ARG2 (Homo sapiens, UniProt P78540); experiment: Recombinant arginase inhibition assay (colorimetric urea detection), ARG2; assay type: biochemical; details: recombinant human ARG2, 20 mM L-arginine, 37 °C, 1 h, pH 7.4
T1 construct: made in house; host or cells: E. coli
T1 sequence (P78540 23-354): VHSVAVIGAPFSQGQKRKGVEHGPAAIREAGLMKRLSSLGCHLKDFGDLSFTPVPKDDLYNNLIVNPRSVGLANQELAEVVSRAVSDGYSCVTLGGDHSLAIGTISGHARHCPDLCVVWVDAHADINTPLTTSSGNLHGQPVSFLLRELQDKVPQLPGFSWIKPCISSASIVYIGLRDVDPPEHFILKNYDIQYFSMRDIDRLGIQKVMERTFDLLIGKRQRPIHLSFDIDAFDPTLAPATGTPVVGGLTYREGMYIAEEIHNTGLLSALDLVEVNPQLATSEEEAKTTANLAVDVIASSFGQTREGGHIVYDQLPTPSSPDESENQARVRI
Method: Recombinant enzymes (ARG1 or ARG2) were produced at Molecure SA—biosynthesized in E. coli expression system, purified by fast protein liquid chromatography, and stored at −80 °C in the storage buffer (20 mM Tris pH 8.0, 100 mM NaCl, 10 mM DDT, 10% glycerol). The enzymatic reaction was carried out at 37 °C for 1 h in the assay buffer (100 mM sodium phosphate buffer, 130 mM NaCl, pH 7.4) with the addition of 1 mg/mL BSA in the presence of 200 µM MnCl2 (enzyme cofactor), 10 mM (for ARG1) or 20 mM (for ARG2) of L-arginine hydrochloride (enzyme substrate), and serial dilutions of the test compounds. The inhibition of the arginase activity was determined by colorimetric detection of produced urea, as previously described with minor changes. Briefly, 150 µL of freshly prepared developing reagent (2 mM o-phthaldialdehyde (OPA), 2 mM N-(1-naphthyl)ethylenediamine dihydrochloride (NED), 50 mM boric acid, 1 M sulfuric acid, 0.03% Brij-35) was added to each well, incubated for 20 min at RT, then the absorbance at 515 nm was measured. Normalized values were fitted to a four-parameter equation using GraphPad Prism and IC50 values were determined. […]

[1] = target: intracellular arginase in human primary hepatocytes; experiment: Liver arginase inhibition assay in human primary hepatocytes (urea in supernatant); assay type: cell-based; details: 24 h incubation, 5 mM L-arginine
CT26 tumours = experiment: Syngeneic CT26 colorectal carcinoma model, monotherapy, with plasma/tumour bioanalytics; assay type: in vivo, mouse; details: for final TGI (tumour growth inhibition): CT26 in BALB/c mice, 100 mg/kg, PO, BID from day 1 post-inoculation
Method: CT26 and K562 in vivo experiments were conducted at Molecure SA. All experimental procedures were approved by the 1st Local Ethics Committee in Warsaw (Poland). For the syngeneic CT26 model, 7–8-week old BALB/c females (n = 9–18 per group, BALB/cAnNCrl, Charles River Laboratories) were injected subcutaneously in the right flank with 5 × 10^5 CT26 cells. […] Anti-PD-L1 antibody (InVivoPlus anti-mouse PD-L1, clone 10F.9G2, BioXCell, lot 615416D1) was injected intraperitoneally at 2.5 mg/kg on days: 8, 10, 12, 14 and 16 post tumour cells inoculation. Control groups received vehicle (saline) or isotype antibody (InVivoPlus rat IgG2b, anti-KLH, BioXCell, lot 629816D1). For the xenograft K562 model, 7–8 week-old athymic nude mice (n = 8–11 per group, Crl:NU(NCr)-Foxn1^nu, Charles River Laboratories) or NK cell-deficient Fox Chase SCID Beige mice (n = 10–12 per group, CB17.Cg-Prkdc^scidLyst^bg-J/Crl, Charles River Laboratories) were injected subcutaneously in the right flank with 1 × 10^7 K562 cells. […] Tumour volume measured by a digital calliper (width × length × depth × π/6) was recorded three times per week. Animals were euthanized when tumours were necrotized or volume exceeded 2000 mm^3. Renca in vivo efficacy study was performed at Crown Biosciences Inc. (Taicang, China). All experimental procedures on animals were approved by the Institutional Animal Care and Use Committee (IACUC) and conducted in accordance with the regulations of the Association for Assessment and Accreditation of Laboratory Animal Care (AAALAC). For the syngeneic Renca model, 6–7 week-old BALB/c females (n = 12 per group, Shanghai Lingchang Biotechnology, Shanghai, China) were injected subcutaneously in the right flank with 1 × 10^6 Renca cells. Tumour volumes (length × width^2 × 0.5) were measured twice per week. OATD-02 was dosed twice per day at 75 mg/kg by oral gavage. A dosing holiday was given to individuals with bodyweight loss exceeding 15% of the initial body weight and the treatment was resumed when the bodyweight loss recovered to less than 10%. Due to the cachexic nature of the Renca model, all animals were supplemented with DietGel to help maintain their body weight.
The concentrations of OATD-02, the reference ARGi or L-arginine were determined in plasma samples or tumour homogenates using liquid chromatography coupled with tandem mass spectrometry (LC-MS/MS). Sample preparation was based on protein precipitation using acetonitrile. The resulting supernatants were analysed using hydrophilic interaction liquid chromatography (HILIC) with subsequent MS detection based on optimised MRM transitions. Matrix-matched calibration and quality control samples were prepared for quantification of OATD-02 and the reference ARGi. Due to the endogenous character of L-arginine, a surrogate matrix was used for its detection.
All statistical analyses were performed using GraphPad Prism (ver. 9, GraphPad Software, Inc., San Diego, CA, USA). Data sets with normal distribution were described as means with SEM (standard error of the mean). Otherwise, the median value was shown and the U Mann–Whitney or the Kruskal–Wallis tests were applied for intergroup comparisons. Differences at p-value less than 0.05 were considered statistically significant. TGI (tumour growth inhibition) index was calculated by the formula: (1 − A/B) × 100%, where A is the tumour volume in the treated group and B is the volume in the control group. […]

SMILES	IC50 (recombinant human ARG2) [µM]	IC50 [1] [µM]	fold change of endogenous plasma L-arginine (CT26 tumours; CT26-bearing mice, 100 mg/kg PO BID, 6 h after the last dosing)	final TGI (tumour growth inhibition) (CT26 tumours) [%]	fold change of L-arginine in tumour homogenates (CT26 tumours; CT26 tumours, 100 mg/kg PO BID, within the first 6 h post-dosing)	IC50 ([1]; Hepatocyte) [µM]	oral bioavailability (plasma concentrations, compared between the two inhibitors) (CT26 tumours; CT26-bearing mice, 100 mg/kg PO BID, Figure 2B)
CN(C)C[C@@H]1CC[C@@H](CCB(O)O)C[C@]1(N)C(=O)O [OATD-02]	0.034	14.2	up to 6.7 fold	48	up to 6.9 fold		
C[C@H](N)C(=O)N1C[C@H](CCCB(O)O)[C@](N)(C(=O)O)C1 [ref. ARGi, numidargistat, reference compound]	0.335			28		50.1	higher oral bioavailability
